Assay results taken from PMC4890880 (ACS infectious diseases, 2016).
Read-outs that look alike come from different tables or passages of the source.

Legend:
[1] = test system: Plasmodium berghei (Pb-Luc) exoerythrocytic-stage parasites; assay: microbe, parasite or virus in culture
[2] = test system: HepG2-A16-CD81EGFP cells; assay: cells; details: Homo sapiens; for IC50: HepG2, read-out: Tox IC50; for inhibition at 50 µM: HepG2, read-out: Tox max inhibition (%) @ 50 uM
[3] = read-out: Inhibition% @ 50 uM rep1
[4] = read-out: Inhibition% @ 50 uM rep2
[5] = HepG2, read-out: HepG2 Tox% @ 50 uM rep1
[6] = HepG2, read-out: HepG2 Tox% @ 50 uM rep2
[7] = read-out: PbLuc IC50, dose response, 1/3 dilutions, max conc. 10 or 50 uM, unit inferred
[8] = read-out: PbLuc max inhibition (%) @ 50 uM

SMILES: CC1CC(C)CN(C(=O)c2ccc(Cl)cc2Cl)C1 (centres unmarked) [MMV001344]
- inhibition at 50 µM [1, 3]: 98%
- inhibition at 50 µM [1, 4]: 98%
- cytotoxicity at 50 µM [2, 5]: 74%
- cytotoxicity at 50 µM [2, 6]: 88%

SMILES: CCN(CC)CCn1c(=N)n(CC(O)c2ccc(Cl)c(Cl)c2)c2ccccc21 (centres unmarked) [MMV000248]
- inhibition at 50 µM [1, 3]: 103%
- inhibition at 50 µM [1, 4]: 105%
- IC50 [1, 7]: 8.5 µM
- inhibition at 50 µM [1, 8]: 99%
- cytotoxicity at 50 µM [2, 5]: 101%
- cytotoxicity at 50 µM [2, 6]: 102%
- IC50 [2]: 27.1 µM
- inhibition at 50 µM [2]: 98%

SMILES: Cc1cc(C=C2SC(=Nc3ccccc3)N(C3CCCC3)C2=O)c(C)n1-c1ccc(Cl)cc1 [MMV666688]
- inhibition at 50 µM [1, 3]: 14%
- inhibition at 50 µM [1, 4]: 0.839%
- cytotoxicity at 50 µM [2, 5]: -4.47%
- cytotoxicity at 50 µM [2, 6]: -11%

SMILES: CCOc1ccc(CN2CCN(CC(O)COc3ccc(OCC(O)CN4CCN(Cc5ccc(OCC)cc5)CC4)cc3)CC2)cc1 (centres unmarked) [MMV007092]
- inhibition at 50 µM [1, 3]: 103%
- inhibition at 50 µM [1, 4]: 104%
- IC50 [1, 7]: 12.4 µM
- inhibition at 50 µM [1, 8]: 99%
- cytotoxicity at 50 µM [2, 5]: 98%
- IC50 [2]: 41.6 µM
- inhibition at 50 µM [2]: 65%

SMILES: Cc1ccnc(NC(c2cccc(OCc3ccccc3)c2)c2ccc3cccnc3c2O)c1 (centres unmarked) [MMV000720]
- inhibition at 50 µM [1, 3]: 103%
- inhibition at 50 µM [1, 4]: 103%
- IC50 [1, 7]: 1.28 µM
- inhibition at 50 µM [1, 8]: 100%
- cytotoxicity at 50 µM [2, 5]: 99%
- IC50 [2]: 5.05 µM
- inhibition at 50 µM [2]: 99%

SMILES: CC(C)(C)c1ccc2c(c1)CN(Cc1ccc(Cl)cc1)CO2 [MMV000442]
- inhibition at 50 µM [1, 3]: 100%
- inhibition at 50 µM [1, 4]: 101%
- cytotoxicity at 50 µM [2, 5]: 97%

SMILES: COc1cccc(Cn2c(Oc3ccccc3)nc3c2c(=O)n(C)c(=O)n3C)c1 [MMV396705]
- inhibition at 50 µM [1, 3]: 99%
- inhibition at 50 µM [1, 4]: 99%
- cytotoxicity at 50 µM [2, 5]: 47%

SMILES: CCN(CC)CCNc1ccnc2cc3ccccc3cc12 [MMV006303]
- inhibition at 50 µM [1, 3]: 102%
- inhibition at 50 µM [1, 4]: 103%
- IC50 [1, 7]: 20.8 µM
- inhibition at 50 µM [1, 8]: 98%
- cytotoxicity at 50 µM [2, 5]: 99%
- IC50 [2]: 42.6 µM
- inhibition at 50 µM [2]: 92%

SMILES: Cc1sc2ncnc(Sc3nc4ccccc4[nH]3)c2c1C [MMV019266]
- inhibition at 50 µM [1, 3]: 98%
- inhibition at 50 µM [1, 4]: 102%
- IC50 [1, 7]: 0.53 µM
- inhibition at 50 µM [1, 8]: 101%
- cytotoxicity at 50 µM [2, 5]: 31%
- cytotoxicity at 50 µM [2, 6]: 47%
- IC50 [2]: > 50 µM
- inhibition at 50 µM [2]: 28%

SMILES: Nc1ccc(-c2nc3cc(Oc4ccc(Oc5ccc6[nH]c(-c7ccc(N)cc7)nc6c5)cc4)ccc3[nH]2)cc1 [MMV011895]
- inhibition at 50 µM [1, 3]: 98%
- inhibition at 50 µM [1, 4]: 99%
- IC50 [1, 7]: 6.98 µM
- inhibition at 50 µM [1, 8]: 99%
- cytotoxicity at 50 µM [2, 5]: 97%
- IC50 [2]: 12.8 µM
- inhibition at 50 µM [2]: 100%

SMILES: Cc1ccc(Nc2nc(-c3ccccn3)cs2)cc1 [MMV007907]
- inhibition at 50 µM [1, 3]: 103%
- inhibition at 50 µM [1, 4]: 106%
- cytotoxicity at 50 µM [2, 5]: 93%
- cytotoxicity at 50 µM [2, 6]: 96%

SMILES: c1ccc(-c2ccc(-c3nc4ccccc4[nH]3)cc2)cc1 [MMV665891]
- inhibition at 50 µM [1, 3]: 103%
- inhibition at 50 µM [1, 4]: 105%
- cytotoxicity at 50 µM [2, 5]: 39%
- cytotoxicity at 50 µM [2, 6]: 30%

SMILES: O=C(Nc1ccc(Cl)c(Cl)c1)Nc1ccc(Cl)c(Cl)c1 [MMV665852]
- inhibition at 50 µM [1, 3]: 103%
- inhibition at 50 µM [1, 4]: 104%
- IC50 [1, 7]: 0.669 µM
- inhibition at 50 µM [1, 8]: 100%
- cytotoxicity at 50 µM [2, 5]: 100%
- IC50 [2]: 4.86 µM
- inhibition at 50 µM [2]: 101%

SMILES: Clc1cc(Br)ccc1-c1ccc(CNCC2CCNCC2)o1 [MMV019918]
- inhibition at 50 µM [1, 3]: 103%
- inhibition at 50 µM [1, 4]: 105%
- IC50 [1, 7]: 8.14 µM
- inhibition at 50 µM [1, 8]: 99%
- cytotoxicity at 50 µM [2, 5]: 97%
- cytotoxicity at 50 µM [2, 6]: 99%
- IC50 [2]: 15.6 µM
- inhibition at 50 µM [2]: 100%

SMILES: COc1ccc(-c2c(C)nn3c(N)c(C#N)cnc23)cc1OC [MMV396797]
- inhibition at 50 µM [1, 3]: 104%
- inhibition at 50 µM [1, 4]: 106%
- IC50 [1, 7]: 1.63 µM
- inhibition at 50 µM [1, 8]: 101%
- cytotoxicity at 50 µM [2, 5]: 72%
- cytotoxicity at 50 µM [2, 6]: 77%
- IC50 [2]: 25.8 µM
- inhibition at 50 µM [2]: 55%

SMILES: Cc1cc(NCCN2CCCCC2)c2ccc3ccccc3c2n1 [MMV006203]
- inhibition at 50 µM [1, 3]: 99%
- inhibition at 50 µM [1, 4]: 101%
- cytotoxicity at 50 µM [2, 5]: 93%
- cytotoxicity at 50 µM [2, 6]: 95%

SMILES: C[n+]1c2ccccc2nc2ccc(NCCO)cc21 [MMV396693]
- inhibition at 50 µM [1, 3]: 102%
- inhibition at 50 µM [1, 4]: 104%
- cytotoxicity at 50 µM [2, 5]: 81%
- cytotoxicity at 50 µM [2, 6]: 93%

SMILES: COc1ccc(CCn2c(=N)c(C(=O)NCc3cccnc3)cc3c(=O)n4cccc(C)c4nc32)cc1 [MMV667488]
- inhibition at 50 µM [1, 3]: 81%
- inhibition at 50 µM [1, 4]: 83%
- cytotoxicity at 50 µM [2, 5]: -0.0644%

SMILES: CCn1nc(-c2ccc(C(=O)OC)cc2)nc2c(=O)n(C)c(=O)nc1-2 [MMV306025]
- inhibition at 50 µM [1, 3]: 104%
- inhibition at 50 µM [1, 4]: 105%
- cytotoxicity at 50 µM [2, 5]: 99%
- cytotoxicity at 50 µM [2, 6]: 101%

SMILES: Cc1ccc(CSCc2ccc(C(=O)NC3CC3)o2)cc1 [MMV007571]
- inhibition at 50 µM [1, 3]: 103%
- inhibition at 50 µM [1, 4]: 103%
- cytotoxicity at 50 µM [2, 5]: 66%
- cytotoxicity at 50 µM [2, 6]: 74%

SMILES: CC1CC2=C(CC1CNCCCN(C)C)C(C)(C)CCC2 (centres unmarked) [MMV665830]
- inhibition at 50 µM [1, 3]: 102%
- inhibition at 50 µM [1, 4]: 102%
- cytotoxicity at 50 µM [2, 5]: 98%

SMILES: COc1cc(-c2nc(-c3ccc(Sc4ccccc4)cc3)c(-c3ccccc3)[nH]2)cc(OC)c1O [MMV007273]
- inhibition at 50 µM [1, 3]: 101%
- inhibition at 50 µM [1, 4]: 102%
- IC50 [1, 7]: 7.67 µM
- inhibition at 50 µM [1, 8]: 100%
- cytotoxicity at 50 µM [2, 5]: 89%
- IC50 [2]: 34.1 µM
- inhibition at 50 µM [2]: 82%

SMILES: O=C(Nc1ccc(F)c(Cl)c1)Nc1ccc(Cl)c(Cl)c1 [MMV665953]
- inhibition at 50 µM [1, 3]: 103%
- inhibition at 50 µM [1, 4]: 102%
- IC50 [1, 7]: 0.85 µM
- inhibition at 50 µM [1, 8]: 101%
- cytotoxicity at 50 µM [2, 5]: 97%
- cytotoxicity at 50 µM [2, 6]: 98%
- IC50 [2]: 5.02 µM
- inhibition at 50 µM [2]: 99%

SMILES: CC(=O)c1ccc(NC(=O)CSc2nc(-c3ccccc3Cl)ns2)cc1 [MMV666124]
- inhibition at 50 µM [1, 3]: 104%
- inhibition at 50 µM [1, 4]: 104%
- cytotoxicity at 50 µM [2, 5]: 96%

SMILES: COc1ccc(C2NCCc3c2[nH]c2ccccc32)cc1CN1CCN(c2ccc(F)cc2)CC1 (centres unmarked) [MMV019690]
- inhibition at 50 µM [1, 3]: 103%
- inhibition at 50 µM [1, 4]: 103%
- IC50 [1, 7]: 6.28 µM
- inhibition at 50 µM [1, 8]: 99%
- cytotoxicity at 50 µM [2, 5]: 101%
- IC50 [2]: 10.8 µM
- inhibition at 50 µM [2]: 100%

SMILES: Cc1ccc2cc3c(N)c4c(C)ccc(C)c4nc3nc2c1 [MMV666079]
- inhibition at 50 µM [1, 3]: 103%
- inhibition at 50 µM [1, 4]: 104%
- IC50 ([1]; read-out: PbLuc IC50, dose response, unit inferred): 31.5 µM
- inhibition at 50 µM [1, 8]: 74%
- cytotoxicity at 50 µM [2, 5]: 97%
- IC50 [2]: > 50 µM
- inhibition at 50 µM [2]: 12%

SMILES: CCCCCCn1c(=N)n(CC(O)COc2cccc(C)c2)c2ccccc21 (centres unmarked) [MMV000445]
- inhibition at 50 µM [1, 3]: 102%
- inhibition at 50 µM [1, 4]: 103%
- IC50 [1, 7]: 4.75 µM
- inhibition at 50 µM [1, 8]: 100%
- cytotoxicity at 50 µM [2, 5]: 99%
- IC50 [2]: 13.7 µM
- inhibition at 50 µM [2]: 99%

SMILES: COc1ccc(C2c3ccc4ccccc4c3Oc3ncn(CCCN(C)C)c(=N)c32)cc1 (centres unmarked) [MMV667491]
- inhibition at 50 µM [1, 3]: 103%
- inhibition at 50 µM [1, 4]: 103%
- IC50 [1, 7]: 4 µM
- inhibition at 50 µM [1, 8]: 94%
- cytotoxicity at 50 µM [2, 5]: 99%
- IC50 [2]: 10.7 µM
- inhibition at 50 µM [2]: 93%

SMILES: COc1cc(C(=O)Nc2nc3c(cc4c5c(cccc53)CC4)s2)cc(OC)c1OC [MMV396665]
- inhibition at 50 µM [1, 3]: 76%
- inhibition at 50 µM [1, 4]: 80%
- cytotoxicity at 50 µM [2, 5]: 11%

SMILES: O=C(CSc1nccn2nc(-c3ccccc3)cc12)Nc1cc(C(F)(F)F)ccc1Cl [MMV396678]
- inhibition at 50 µM [1, 3]: 68%
- inhibition at 50 µM [1, 4]: 82%
- cytotoxicity at 50 µM [2, 5]: -13%
- cytotoxicity at 50 µM [2, 6]: -3%
